The text below walks through data of patent US9175305B2, “Mutant hydroxyphenylpyruvate dioxygenase polypeptides and methods of use” (Syngenta Participations AG, priority 2009, dated 2015).

As usually defined, the Kd is the constant that tells how readily two partners part at equilibrium.

In one data set the target is HPPD SEQ ID NO:22 (Avena sativa, UniProt A0ACD5V6K6, DEL109-109/L256M). The data set is described as follows: biochemical. The format is binding. The conditions noted are these: read-out: koff (k1). On the procedure: (§1) On rates (governed by an association rate constant, kon) for the formation of the enzyme: inhibitor complexes, EI and off rates (governed by a dissociation rate constant, koff) were determined by methods known in the art and essentially as described in Hawkes et al. (2001) Proc. Bright. Crop. Prot. Conf. Weeds, 2:563-568 and in PCT Patent App. Pub. No. WO 02/46387).
(§2) For example, on rates were measured by, at zero time, adding ˜60 pmoles HPPD to 50 mM BisTrisPropane buffer at pH7.0 and at 25° C. containing 25 mM Na ascorbate, 4 μg/ml bovine catalase (Sigma, St. Louis, Mo.) and an excess (˜300 pmoles) of ^14C inhibitor in a total assay volume of 425 μl and, at various time points (0-180 s), quenching the radiolabel binding reaction by addition and rapid mixing of 100 μl ‘cold’ 1 mM structure A. Protein samples quenched at different times were then exchanged into 50 mM BisTrisPropane buffer at pH 7.0 containing 0.1M KCl by rapid chromatography down a NAP5 G25 Sephadex column (GE Healthcare Ltd, Buckinghamshire UK) and the amount of ^14C bound to protein fractions quantified in Optiphase scintillant using a Tri-Carb 2900TR scintillation counter (Perkin Elmer, Wellesley, Mass.). The data were fit according to the scheme below in order to derive the value of the apparent second order rate constant, k2, governing the association rate of enzyme and radiolabelled inhibitor. A range of enzyme and inhibitor concentrations were used. […] Further example methods are described in PCT Patent App. Pub. No. WO 02/46387.
(§3) Off rates (k1 in the scheme below) were derived from exchange rate studies where either the test inhibitor, I, or its exchange partner, J were radiolabelled and the data fit according to the scheme below. As noted in Hawkes et al. (2001) Proc. Bright. Crop. Prot. Conf.
(§4) After 30 minutes the exchange reaction was initiated with addition of 100 μl 1 mM ‘cold’ structure A with thorough mixing, and, immediately, 150 μl were withdrawn and loaded onto a NAP5 column, the protein exchanged into 50 mM BisTrisPropane buffer at pH 7.0 containing 0.1M KCl by rapid (<2 min) chromatography down a NAP5 G25 Sephadex column (GE Healthcare Ltd, Buckinghamshire UK) and the amount of ^14C bound to protein measured by Optiphase scintillant using a Tri-Carb 2900TR scintillation counter (Perkin Elmer, Wellesley, Mass.). Further aliquots were removed and measured in the same way at various times over minutes or hours as required in order to determine the exchange kinetics.
(§5) After 30 minutes the reaction vessel was transferred to ice. After a further 10 minutes at ice temperature the exchange reaction was initiated by addition of 100 μl 1 mM Structure A, with thorough mixing, and 150 μl was withdrawn and loaded onto a NAP5 column in a cold room at ˜5-8° C. in order to quantify the amount of radiolabel remaining bound to the protein at various time from the start of exchange at ice temperature.
(§6) Off rates (k1) of HPPD inhibitors that are not available radiolabelled or that present other measurement problems (for example high levels of background non-specific protein-binding which can be measured as radiolabel binding that persists in the presence of high concentrations of ‘cold’ inhibitor) may be measured indirectly. […] Exemplary methods are also described in PCT Patent App. Pub. No. WO 02/46387.

The target of a further data set is HPPD SEQ ID NO:14 (Avena sativa, UniProt A0ACD5V6K6, DEL109-109). Description: biochemical. The format is binding. On the procedure: as §1, §2, §3, §4, §5, §6
A further data set concerns the target HPPD SEQ ID NO:15 (Avena sativa, UniProt A0ACD5V6K6, DEL109-109/Q298A). The data set is described as follows: biochemical. The format is binding. The conditions noted are these: read-out: koff (k1). On the procedure: as §1, §2, §3, §4, §5, §6
A further data set concerns the target HPPD SEQ ID NO:18 (Avena sativa, UniProt A0ACD5V6K6, DEL109-109/I285T). Description: biochemical. The format is binding. The conditions noted are these: read-out: koff (k1). On the procedure: as §1, §2, §3, §4, §5, §6
A further data set addresses HPPD SEQ ID NO:24 (Avena sativa, UniProt A0ACD5V6K6, DEL109-109/L359M). Description: biochemical. The format is binding. On the procedure:
as §1, §2, §3, §4, §5, §6

The target of a further data set is HPPD SEQ ID NO:21 (Avena sativa, UniProt A0ACD5V6K6, DEL109-109/I285V). Description: biochemical. The format is binding. The conditions noted are these: read-out: koff (k1). On the procedure: as §1, §2, §3, §4, §5, §6
The target in another data set is HPPD SEQ ID NO:23 (Avena sativa, UniProt A0ACD5V6K6, A242W/DEL109-109). Description: biochemical. The format is binding. The conditions noted are these: read-out: koff (k1). On the procedure: as §1, §2, §3, §4, §5, §6
Data set [1] in a line: Km and kcat of expressed HPPDs (HPLC/UV quantitation of homogentisate). The format is biochemical, Avena sativa. The conditions noted are these: for V217I, L271I, L271V, V258M, A326R estimated from initial rates in cell extracts, pH 7.0, 25° C., 120 μM HPP. On the procedure: The assay solution was transferred to Chromacol 03-CVG HPLC vials, sealed and the amount of homogentisate formed in a 40 μl aliquot determined by injection onto a reverse phase Aqua C18 5μ 75×4.6 mm HPLC column running 5.5% acetonitrile 0.1% TFA (Buffer A) at 1.5 ml/min. The column was eluted at 1.5 ml/minute using a 2 minute wash in buffer A, followed by a 2 minute wash in a 30/70 mixture of buffer A and 100% Acetonitrile, and a further 3.5 minute wash in buffer A. The elution of homogentisate was monitored by UV at 292 nm and the amount formed in each reaction quantified by comparison with a standard calibration curve.
Km and Vmax values were determined (for example FIG. 1) using a non linear least squares fit using Grafit 4™ software (Erithacus Software, Middlesex, UK). Kcat values were determined by dividing the maximum rate, Vmax expressed in nmol/second by the number of nmoles of HPPD enzyme (based on the concentration determined by active-site titration).
Experiments were carried out as described for Table 4. ‘Sulc’ denotes sulcotrione and ‘nd’ means ‘no data’. For V217I, L271I, L271V, V258M and A326R, the relative values of kcat were estimated from comparisons of the initial rates in cell extracts of similarly prepared and expressed HPPDs in conventional enzyme activity assays at pH 7.0, 25° C. and at a substrate concentration of 120 μM HPP.

A short description of data set [2]: catalytic activity and herbicide resistance of mutants of SEQ ID NO:14 in extracts. Type of data set: biochemical, Avena sativa. An excerpt:
These further mutations can all be optionally combined with the resistance conferring mutations to produce catalytically active variants of HPPD herbicide resistant enzymes of the current invention.

Where “and” joins values, the source holds several entries; their conditions need not be identical. Equal entries are not always repeated. Where two headings read alike, the source gives them in different places.

HPPD SEQ ID NO:14, sequence (A0ACD5V6K6 entry or part of it DEL109-109): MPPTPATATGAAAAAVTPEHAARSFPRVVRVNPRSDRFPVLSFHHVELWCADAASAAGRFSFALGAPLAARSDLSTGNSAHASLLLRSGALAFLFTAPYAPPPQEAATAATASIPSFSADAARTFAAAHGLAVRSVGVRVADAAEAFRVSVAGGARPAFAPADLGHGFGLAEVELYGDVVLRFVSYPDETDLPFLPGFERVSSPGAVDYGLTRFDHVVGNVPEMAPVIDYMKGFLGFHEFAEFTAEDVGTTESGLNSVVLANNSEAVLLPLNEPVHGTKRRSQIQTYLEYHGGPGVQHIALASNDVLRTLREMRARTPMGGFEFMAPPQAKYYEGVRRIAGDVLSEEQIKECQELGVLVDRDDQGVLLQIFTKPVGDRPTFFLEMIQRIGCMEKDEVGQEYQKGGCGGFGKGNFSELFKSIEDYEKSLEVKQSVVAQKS
HPPD SEQ ID NO:24, sequence (A0ACD5V6K6 entry or part of it DEL109-109/L359M): as the sequence (A0ACD5V6K6 entry or part of it DEL109-109) above, with L358M counted along it
HPPD SEQ ID NO:22, sequence (A0ACD5V6K6 entry or part of it DEL109-109/L256M): as the sequence (A0ACD5V6K6 entry or part of it DEL109-109) above, with L255M counted along it
HPPD SEQ ID NO:23, sequence (A0ACD5V6K6 entry or part of it DEL109-109/A242W): as the sequence (A0ACD5V6K6 entry or part of it DEL109-109) above, with A241W counted along it
HPPD SEQ ID NO:21, sequence (A0ACD5V6K6 entry or part of it DEL109-109/I285V): as the sequence (A0ACD5V6K6 entry or part of it DEL109-109) above, with I284V counted along it
HPPD SEQ ID NO:15, sequence (A0ACD5V6K6 entry or part of it DEL109-109/Q298A): as the sequence (A0ACD5V6K6 entry or part of it DEL109-109) above, with Q297A counted along it
HPPD SEQ ID NO:18, sequence (A0ACD5V6K6 entry or part of it DEL109-109/I285T): as the sequence (A0ACD5V6K6 entry or part of it DEL109-109) above, with I284T counted along it

With `CS(=O)(=O)c1cc(C(F)(F)F)ccc1C(=O)C(C#N)C(=O)C1CC1` (stereo not shown) [Structure D], the koff at HPPD SEQ ID NO:22 was found to be 2.37e-05 s⁻¹; at HPPD SEQ ID NO:14 (25° C., direct, radiochemical method, average and individual experiments, read-out: Off rate k1) it was 3.96e-05 s⁻¹; at HPPD SEQ ID NO:14 (read-out: koff (k1)), 3.96e-05 s⁻¹; at HPPD SEQ ID NO:15 it was 2.37e-05 s⁻¹; at HPPD SEQ ID NO:18, 3.96e-05 s⁻¹; at HPPD SEQ ID NO:24 (read-out: koff (k1)) it was 9.18e-05 s⁻¹. Besides, the koff was 3.96e-05 s⁻¹ on HPPD SEQ ID NO:21 and 2.37e-05 s⁻¹ on HPPD SEQ ID NO:23. Besides, the “Off rate k1” value on HPPD SEQ ID NO:14 (25° C., direct, radiochemical method, average and individual experiments) is 4.17e-05 s⁻¹ and 3.75e-05 s⁻¹. For the same molecule, the kon on HPPD SEQ ID NO:14 (25° C., direct, radiochemical method, average and individual experiments, read-out: On rate k2) was determined as 32000 M⁻¹ s⁻¹; on HPPD SEQ ID NO:14 (25° C., enzyme activity-based method, read-out: On rate, activity-based method), 32000 M⁻¹ s⁻¹; on HPPD SEQ ID NO:14 (read-out: kon (k2)), 32000 M⁻¹ s⁻¹; on HPPD SEQ ID NO:24 (read-out: kon (k2)) it was 32000 M⁻¹ s⁻¹. On HPPD SEQ ID NO:14 (HPPD SEQ ID NO:14), the Kd/Km ratio was 0.00023. The Kd at HPPD SEQ ID NO:14 (HPPD variant SEQ ID# 14, 25° C.) is 1.2 nM; at HPPD SEQ ID NO:14 (estimated from on and off rates, 25° C.), 1.23 nM; at HPPD SEQ ID NO:24 it was 2.9 nM.

B1: V258M: V258M mutant of HPPD SEQ ID NO:14 (protein)
chain: MPPTPATATGAAAAAVTPEHAARSFPRVVRVNPRSDRFPVLSFHHVELWCADAASAAGRFSFALGAPLAARSDLSTGNSAHASLLLRSGALAFLFTAPYAPPPQEAATAATASIPSFSADAARTFAAAHGLAVRSVGVRVADAAEAFRVSVAGGARPAFAPADLGHGFGLAEVELYGDVVLRFVSYPDETDLPFLPGFERVSSPGAVDYGLTRFDHVVGNVPEMAPVIDYMKGFLGFHEFAEFTAEDVGTTESGLNSMVLANNSEAVLLPLNEPVHGTKRRSQIQTYLEYHGGPGVQHIALASNDVLRTLREMRARTPMGGFEFMAPPQAKYYEGVRRIAGDVLSEEQIKECQELGVLVDRDDQGVLLQIFTKPVGDRPTFFLEMIQRIGCMEKDEVGQEYQKGGCGGFGKGNFSELFKSIEDYEKSLEVKQSVVAQKS
modifications: mutant HPPD polypeptide
For B1, the “Rate: kcat relative to non-mutated HPPD SEQ ID NO:14” value in [1] is 1. In addition, the “catalytic activity and resistance to sulcotrione relative to control, unmutated SEQ ID NO:14” value in [2] is given as “neutral mutations”.
